Experimental data taken from US12129246B1, “Hydroquinazoline derivatives for the treatment of a disease or disorder” (Novartis AG, priority 2023, dated 2024).
Where two headings read alike, the source gives them in different places.

What was measured:
human NPR1 = target: T1, human NPR1 (Homo sapiens, UniProt P16066); assay: Cellular cGMP production assay, human NPR1 expressing CHO-K1 cells (CisBio HTRF); format: cell-based; conditions: for AC50: cGMP production, 30 min at 37° C., 12-point dose-response from 30 μM; for Human NPR1 Amax (% of ANP): maximum cGMP production as percentage of the maximum cGMP produced with ANP
T1 construct: host or cells: CHO-K1
T1 sequence (P16066 33-1061): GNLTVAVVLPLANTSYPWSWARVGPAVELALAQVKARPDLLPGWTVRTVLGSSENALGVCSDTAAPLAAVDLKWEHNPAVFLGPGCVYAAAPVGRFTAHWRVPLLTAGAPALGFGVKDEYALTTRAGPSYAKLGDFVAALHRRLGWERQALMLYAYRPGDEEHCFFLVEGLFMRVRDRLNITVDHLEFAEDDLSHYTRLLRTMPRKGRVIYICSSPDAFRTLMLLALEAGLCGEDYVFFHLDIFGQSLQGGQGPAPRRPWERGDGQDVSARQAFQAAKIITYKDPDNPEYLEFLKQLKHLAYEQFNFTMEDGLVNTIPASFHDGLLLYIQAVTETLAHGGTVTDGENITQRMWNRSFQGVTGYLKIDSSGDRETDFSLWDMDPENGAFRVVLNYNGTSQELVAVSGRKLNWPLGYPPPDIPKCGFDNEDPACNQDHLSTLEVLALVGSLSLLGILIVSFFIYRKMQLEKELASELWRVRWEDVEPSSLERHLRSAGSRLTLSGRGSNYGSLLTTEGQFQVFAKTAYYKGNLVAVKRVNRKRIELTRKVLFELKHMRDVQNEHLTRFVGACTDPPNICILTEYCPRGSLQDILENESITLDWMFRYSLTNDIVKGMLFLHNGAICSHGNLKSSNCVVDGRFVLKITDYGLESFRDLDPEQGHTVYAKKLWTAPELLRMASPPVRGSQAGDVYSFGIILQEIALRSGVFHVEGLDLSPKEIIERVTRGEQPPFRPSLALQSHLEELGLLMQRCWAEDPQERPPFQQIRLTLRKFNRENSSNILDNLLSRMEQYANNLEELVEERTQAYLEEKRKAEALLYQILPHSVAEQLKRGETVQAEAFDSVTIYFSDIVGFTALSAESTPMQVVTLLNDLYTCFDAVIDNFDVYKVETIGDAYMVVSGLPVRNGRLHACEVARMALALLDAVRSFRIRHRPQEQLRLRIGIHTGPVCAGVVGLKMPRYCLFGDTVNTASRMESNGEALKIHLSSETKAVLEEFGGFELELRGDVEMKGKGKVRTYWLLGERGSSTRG
Outline: (§1)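 12-pt 3-fold dose-response, top 30 μM; buffer PBS + 0.1% BSA + 1 mM IBMX (PDE inhibitor); 30 min, 37 °C. Lyse, add cGMP-d2 + anti-cGMP-cryptate, 1 h RT. Ex 317 / em 665 nm; Delta F converted to cGMP via calibrator standard curve.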

monkey NPR1 = monkey NPR1 (Macaca fascicularis, UniProt A0A7N9DBT9); assay: Cellular cGMP production assay, monkey NPR1 expressing CHO-K1 cells (CisBio HTRF); format: cell-based; conditions: for Monkey NPR1 Amax (% of ANP): maximum cGMP production as percentage of the maximum cGMP produced with ANP
Outline: as §1

[1] = cGMP production, monkey NPR1 CHO-K1 cells, 30 min at 37° C., 12-point dose-response from 30 μM, read-out: Monkey NPR1 AC50

Chain of monkey NPR1 (A0A7N9DBT9 entry or part of it): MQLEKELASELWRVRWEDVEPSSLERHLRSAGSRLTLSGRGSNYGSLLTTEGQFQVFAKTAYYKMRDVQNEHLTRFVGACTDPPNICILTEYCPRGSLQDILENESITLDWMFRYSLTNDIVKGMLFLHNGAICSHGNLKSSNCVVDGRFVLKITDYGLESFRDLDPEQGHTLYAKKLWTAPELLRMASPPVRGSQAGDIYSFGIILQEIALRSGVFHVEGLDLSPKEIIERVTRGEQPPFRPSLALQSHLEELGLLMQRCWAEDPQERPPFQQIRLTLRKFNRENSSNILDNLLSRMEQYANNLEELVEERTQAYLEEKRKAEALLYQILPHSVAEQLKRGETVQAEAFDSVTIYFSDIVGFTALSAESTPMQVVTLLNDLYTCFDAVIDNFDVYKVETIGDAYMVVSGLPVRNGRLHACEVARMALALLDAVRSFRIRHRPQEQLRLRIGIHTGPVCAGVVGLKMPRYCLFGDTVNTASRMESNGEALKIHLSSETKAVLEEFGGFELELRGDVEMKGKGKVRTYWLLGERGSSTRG

Structure (SMILES): CC[C@@H](Nc1nc2c(c(N[C@@H](CN3CCC(C)CC3)c3cnn(C)c3)n1)C[C@H](c1ccccc1)CC2)[C@H]1CC[C@H](C(=O)O)CC1 [Compound 121, (1R,4r)-4-((R)-1-(((R)-4-(((R)-1-(1-methyl-1H-pyrazol-4-yl)-2-(4-methylpiperidin-1-yl)ethyl)amino)-6-phenyl-5,6,7,8-tetrahydroquinazolin-2-yl)amino)propyl)cyclohexane-1-carboxylic acid]
- AC50 (human NPR1): 570 nM
- Human NPR1 Amax (% of ANP) (human NPR1): 100.330 % of ANP
- AC50 (monkey NPR1; [1]): 382 nM
- Monkey NPR1 Amax (% of ANP) (monkey NPR1; monkey NPR1 CHO-K1 cells): 102.117 % of ANP

Structure (SMILES): CC[C@@H](Nc1nc2c(c(N[C@@H](CN3C[C@H]4CC[C@@H]3C4)c3cnn(CC)c3)n1)C[C@H](c1ccccc1)CC2)[C@H]1CC[C@H](C(=O)O)CC1 [Compound 122, (1R,4r)-4-((R)-1-(((R)-4-(((R)-2-((1R,4S)-2-azabicyclo[2.2.1]heptan-2-yl)-1-(1-ethyl-1H-pyrazol-4-yl)ethyl)amino)-6-phenyl-5,6,7,8-tetrahydroquinazolin-2-yl)amino)propyl)cyclohexane-1-carboxylic acid]
- AC50 (human NPR1): 574 nM
- Human NPR1 Amax (% of ANP) (human NPR1): 102.209 % of ANP
- AC50 (monkey NPR1; [1]): 411 nM
- Monkey NPR1 Amax (% of ANP) (monkey NPR1; monkey NPR1 CHO-K1 cells): 99.605 % of ANP

Structure (SMILES): CC[C@@H](Nc1nc2c(c(N[C@@H](CN3CCCC[C@@H]3C)c3cnn(C)c3)n1)C[C@H](c1ccccc1)CC2)[C@H]1CC[C@H](C(=O)O)CC1 [Compound 123, (1R,4r)-4-((R)-1-(((R)-4-(((R)-1-(1-methyl-1H-pyrazol-4-yl)-2-((S)-2-methylpiperidin-1-yl)ethyl)amino)-6-phenyl-5,6,7,8-tetrahydroquinazolin-2-yl)amino)propyl)cyclohexane-1-carboxylic acid]
- AC50 (human NPR1): 592 nM
- Human NPR1 Amax (% of ANP) (human NPR1): 103.006 % of ANP
- AC50 (monkey NPR1; [1]): 377 nM
- Monkey NPR1 Amax (% of ANP) (monkey NPR1; monkey NPR1 CHO-K1 cells): 102.761 % of ANP

Structure (SMILES): CC[C@H]([C@H]1CC[C@H](C(=O)O)CC1)N(C)c1nc2c(c(N[C@@H](CN3CCC[C@H](C)C3)c3cnn(C)c3)n1)CN(c1cccc(F)c1)CC2 [Compound 124, (1R,4r)-4-((R)-1-((6-(3-fluorophenyl)-4-(((R)-1-(1-methyl-1H-pyrazol-4-yl)-2-((S)-3-methylpiperidin-1-yl)ethyl)amino)-5,6,7,8-tetrahydropyrido[4,3-d]pyrimidin-2-yl)(methyl)amino)propyl)cyclohexane-1-carboxylic acid]
- AC50 (human NPR1): 617 nM
- Human NPR1 Amax (% of ANP) (human NPR1): 106.069 % of ANP
- AC50 (monkey NPR1; [1]): 406 nM
- Monkey NPR1 Amax (% of ANP) (monkey NPR1; monkey NPR1 CHO-K1 cells): 101.428 % of ANP

Structure (SMILES): CC[C@H]([C@H]1CC[C@H](C(=O)O)CC1)N(C)c1nc2c(c(N[C@@H](CN3CCC[C@@H](C)C3)c3cnn(C)c3)n1)C[C@H](c1ccccc1)CC2 [Compound 125, (1R,4r)-4-((R)-1-(methyl((R)-4-(((R)-1-(1-methyl-1H-pyrazol-4-yl)-2-((R)-3-methylpiperidin-1-yl)ethyl)amino)-6-phenyl-5,6,7,8-tetrahydroquinazolin-2-yl)amino)propyl)cyclohexane-1-carboxylic acid]
- AC50 (human NPR1): 619 nM
- Human NPR1 Amax (% of ANP) (human NPR1): 106.130 % of ANP
- AC50 (monkey NPR1; [1]): 410 nM
- Monkey NPR1 Amax (% of ANP) (monkey NPR1; monkey NPR1 CHO-K1 cells): 114.072 % of ANP

Structure (SMILES): CC[C@@H](Nc1nc2c(c(N[C@@H](CN3CCCC4(CCC4)C3)c3cnn(CC)c3)n1)C[C@H](c1ccccc1)CC2)[C@H]1CC[C@H](C(=O)O)CC1 [Compound 126, (1R,4r)-4-((R)-1-(((R)-4-(((R)-1-(1-ethyl-1H-pyrazol-4-yl)-2-(6-azaspiro[3.5]nonan-6-yl)ethyl)amino)-6-phenyl-5,6,7,8-tetrahydroquinazolin-2-yl)amino)propyl)cyclohexane-1-carboxylic acid]
- AC50 (human NPR1): 620 nM
- Human NPR1 Amax (% of ANP) (human NPR1): 98.906 % of ANP
- AC50 (monkey NPR1; [1]): 452 nM
- Monkey NPR1 Amax (% of ANP) (monkey NPR1; monkey NPR1 CHO-K1 cells): 102.477 % of ANP

Structure (SMILES): CC[C@@H](Nc1nc2c(c(N[C@@H](CN3C4CCCC3CC4)c3csc(C)n3)n1)C[C@H](c1cccc(F)c1)CC2)[C@H]1CC[C@H](C(=O)O)CC1 [Compound 127, (1R,4r)-4-((1R)-1-(((6R)-4-(((1S)-2-(8-azabicyclo[3.2.1]octan-8-yl)-1-(2-methylthiazol-4-yl)ethyl)amino)-6-(3-fluorophenyl)-5,6,7,8-tetrahydroquinazolin-2-yl)amino)propyl)cyclohexane-1-carboxylic acid]
- AC50 (human NPR1): 623 nM
- Human NPR1 Amax (% of ANP) (human NPR1): 102.596 % of ANP
- AC50 (monkey NPR1): 355 nM
- Monkey NPR1 Amax (% of ANP) (monkey NPR1; monkey NPR1 CHO-K1 cells): 102.089 % of ANP

Structure (SMILES): CC[C@H]([C@H]1CC[C@H](C(=O)O)CC1)N(C)c1nc2c(c(N[C@@H](CN3CC4CCC3C4)c3cnn(C)c3)n1)C[C@H](c1ccccc1)CC2 (stereo partly drawn) [Compound 128, (1R,4r)-4-((1R)-1-(((6R)-4-(((1R)-2-(2-azabicyclo[2.2.1]heptan-2-yl)-1-(1-methyl-1H-pyrazol-4-yl)ethyl)amino)-6-phenyl-5,6,7,8-tetrahydroquinazolin-2-yl)(methyl)amino)propyl)cyclohexane-1-carboxylic acid]
- AC50 (human NPR1): 629 nM
- Human NPR1 Amax (% of ANP) (human NPR1): 105.430 % of ANP
- AC50 (monkey NPR1; [1]): 416 nM
- Monkey NPR1 Amax (% of ANP) (monkey NPR1; monkey NPR1 CHO-K1 cells): 95.117 % of ANP

Structure (SMILES): CC[C@H]([C@H]1CC[C@H](C(=O)O)CC1)N(C)c1nc2c(c(N[C@@H](CN3CCC[C@H](O)C3)c3cnn(C)c3)n1)C[C@H](c1ccccc1)CC2 [Compound 129, (1R,4r)-4-((R)-1-(((R)-4-(((R)-2-((S)-3-hydroxypiperidin-1-yl)-1-(1-methyl-1H-pyrazol-4-yl)ethyl)amino)-6-phenyl-5,6,7,8-tetrahydroquinazolin-2-yl)(methyl)amino)propyl)cyclohexane-1-carboxylic acid]
- AC50 (human NPR1): 646 nM
- Human NPR1 Amax (% of ANP) (human NPR1): 93.751 % of ANP
- AC50 (monkey NPR1; [1]): 362 nM
- Monkey NPR1 Amax (% of ANP) (monkey NPR1; monkey NPR1 CHO-K1 cells): 91.227 % of ANP

Structure (SMILES): CC[C@@H](Nc1nc2c(c(N[C@@H](CN3CCCC3)c3ccccc3)n1)CN(c1ccccc1)CC2)[C@H]1CC[C@H](C(=O)O)CC1 [Compound 131, (1R,4r)-4-((R)-1-((6-phenyl-4-(((R)-1-phenyl-2-(pyrrolidin-1-yl)ethyl)amino)-5,6,7,8-tetrahydropyrido[4,3-d]pyrimidin-2-yl)amino)propyl)cyclohexane-1-carboxylic acid]
- AC50 (human NPR1): 693 nM
- Human NPR1 Amax (% of ANP) (human NPR1): 101.666 % of ANP
- AC50 (monkey NPR1; [1]): 582 nM
- Monkey NPR1 Amax (% of ANP) (monkey NPR1; monkey NPR1 CHO-K1 cells): 109.531 % of ANP

Structure (SMILES): CC[C@@H](Nc1nc2c(c(N[C@@H](CN3C4CCCC3CCC4)c3cnn(C(C)C)c3)n1)C[C@H](c1ccccc1)CC2)[C@H]1CC[C@H](C(=O)O)CC1 [Compound 132, (1R,4r)-4-((R)-1-(((R)-4-(((R)-2-((1S,5S)-9-azabicyclo[3.3.1]nonan-9-yl)-1-(1-isopropyl-1H-pyrazol-4-yl)ethyl)amino)-6-phenyl-5,6,7,8-tetrahydroquinazolin-2-yl)amino)propyl)cyclohexane-1-carboxylic acid]
- AC50 (human NPR1): 757 nM
- Human NPR1 Amax (% of ANP) (human NPR1): 97.440 % of ANP
- AC50 (monkey NPR1): 620 nM
- Monkey NPR1 Amax (% of ANP) (monkey NPR1; monkey NPR1 CHO-K1 cells): 103.231 % of ANP

Structure (SMILES): CN(c1nc2c(c(N[C@@H](CN3C4CCCC3CCC4)c3cnn(C)c3)n1)C[C@H](c1ccccc1)CC2)[C@H](C1CC1)[C@H]1CC[C@H](C(=O)O)CC1 [Compound 133, (1R,4r)-4-((R)-(((R)-4-(((R)-2-((1S,5S)-9-azabicyclo[3.3.1]nonan-9-yl)-1-(1-methyl-1H-pyrazol-4-yl)ethyl)amino)-6-phenyl-5,6,7,8-tetrahydroquinazolin-2-yl)(methyl)amino)(cyclopropyl)methyl)cyclohexane-1-carboxylic acid]
- AC50 (human NPR1): 765 nM
- Human NPR1 Amax (% of ANP) (human NPR1): 95.978 % of ANP
- AC50 (monkey NPR1): 647 nM
- Monkey NPR1 Amax (% of ANP) (monkey NPR1; monkey NPR1 CHO-K1 cells): 99.809 % of ANP

Structure (SMILES): CC[C@H]([C@H]1CC[C@H](C(=O)O)CC1)N(C)c1nc2c(c(N[C@@H](CN3CCC[C@H](OC)C3)c3cnn(C)c3)n1)C[C@H](c1ccccc1)CC2 [Compound 134, (1R,4r)-4-((R)-1-(((R)-4-(((R)-2-((S)-3-methoxypiperidin-1-yl)-1-(1-methyl-1H-pyrazol-4-yl)ethyl)amino)-6-phenyl-5,6,7,8-tetrahydroquinazolin-2-yl)(methyl)amino)propyl)cyclohexane-1-carboxylic acid]
- AC50 (human NPR1): 792 nM
- Human NPR1 Amax (% of ANP) (human NPR1): 101.936 % of ANP
- AC50 (monkey NPR1; [1]): 684 nM
- Monkey NPR1 Amax (% of ANP) (monkey NPR1; monkey NPR1 CHO-K1 cells): 96.371 % of ANP
